Publication PMC5011342, “A high throughput drug screening assay to identify compounds that promote oligodendrocyte differentiation using acutely dissociated and purified oligodendrocyte precursor cells” (BMC Research Notes, 2016)
Where two headings read alike, the source gives them in different places.

Columns and labels:
[1] = tested on: acutely dissociated and purified rat OPCs; assay: Acute OL differentiation assay (MBP expression/cell, immunofluorescent image quantification); type: cell-based
Method in brief: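 Oligodendrocyte precursor cells were enriched from P6-P7 Sprague–Dawley rat brains by immunopanning (RAN-2 and GalC depletion, O4 selection), plated at 5000 cells/well in serum-free, mitogen-free differentiation media on PDL/laminin 96-well view plates, centrifuged at 200×g, and pre-incubated 1–2 h before test compounds were added in quadruplicate. On DIV4, cells were fixed, stained for MBP and DAPI, imaged automatically, and MBP expression per cell was quantified.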

expanded OPCs = assay: cells; conditions: for viability at 0.1 µM / viability at 1 µM / viability at 10 µM: Rattus norvegicus, 72 h; for 0.1 µM (% DMSO) / 1 µM (% DMSO) / 10 µM (% DMSO): alamarBlue viability of expanded OPCs, relative to DMSO control; for 0.1 µM (% DMSO): compound at 0.1 µM; for 1 µM (% DMSO): compound at 1 µM; for 10 µM (% DMSO): compound at 10 µM
Method in brief: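 Expanded OPCs seeded at 10,000 cells/well in differentiation media, then exposed to NCC library compounds at 10, 1 and 0.1 µM (quadruplicate, 0.1% DMSO) for three days. Viability read as alamarBlue fluorescence (560/590 nm) after 4 h at 37 °C; tunicamycin 5 ng/ml served as toxicity control.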

[2] = Rattus norvegicus, 0.4 uM test compound, relative to quetiapine, sheet "All OLga data", read-out: OL differentiation, 0.4 uM (% Quet)
[3] = Rattus norvegicus, 2 uM test compound, relative to quetiapine, sheet "All OLga data", read-out: OL differentiation, 2 uM (% Quet)
[4] = read-out: 0.1 µM (% DMSO), alamarBlue viability of expanded OPCs, compound at 0.1 µM, sheet All Tox data
[5] = read-out: 1 µM (% DMSO), alamarBlue viability of expanded OPCs, compound at 1 µM, sheet All Tox data
[6] = read-out: 10 µM (% DMSO), alamarBlue viability of expanded OPCs, compound at 10 µM, sheet All Tox data
[7] = Rattus norvegicus, 10 uM test compound, relative to quetiapine, sheet "All OLga data", read-out: OL differentiation, 10 uM (% Quet)
[8] = read-out: 0.1 µM (% DMSO), alamarBlue viability, NCC library compound at 0.1 µM, sheet "All Tox data"
[9] = read-out: 1 µM (% DMSO), alamarBlue viability, NCC library compound at 1 µM, sheet "All Tox data"
[10] = read-out: 10 µM (% DMSO), alamarBlue viability, NCC library compound at 10 µM, sheet "All Tox data"
[11] = Rattus norvegicus, test compound at 0.4 uM, NCC library screen, sheet "All OLga data", relative to quetiapine, read-out: 0.4 uM (% Quet)
[12] = Rattus norvegicus, test compound at 2 uM, NCC library screen, sheet "All OLga data", relative to quetiapine, read-out: 2 uM (% Quet)
[13] = test compound at 2 uM, MBP expression relative to quetiapine, NCC library screen, sheet "All OLga data"
[14] = test compound at 10 uM, MBP expression relative to quetiapine, NCC library screen, sheet "All OLga data"
[15] = Rattus norvegicus, test compound at 10 uM, NCC library screen, sheet "All OLga data", relative to quetiapine, read-out: 10 uM (% Quet)
[16] = Rattus norvegicus, test compound at 2 uM, MBP expression relative to quetiapine, NCC library screen, sheet "All OLga data", read-out: 2 uM (% Quet)
[17] = Rattus norvegicus, test compound at 10 uM, MBP expression relative to quetiapine, NCC library screen, sheet "All OLga data", read-out: 10 uM (% Quet)

Structure (SMILES) | viability at 0.1 µM (expanded OPCs; [8]) [%] | viability at 1 µM (expanded OPCs; [9]) [%] | viability at 10 µM (expanded OPCs; [10]) [%] | activation at 2 µM [1, 12] [%] | 0.1 µM (% DMSO) (expanded OPCs) | 1 µM (% DMSO) (expanded OPCs) | 10 µM (% DMSO) (expanded OPCs) | activation at 10 µM [1, 15] [%] | further results
Nc1ccn([C@@H]2O[C@H](CO)[C@@H](O)[C@@H]2O)c(=O)n1 [Cytarabine] |  |  |  |  |  |  |  |  | activation at 0.4 µM [1, 2]: -18.7%; activation at 2 µM [1, 3]: 5.8%; viability at 0.1 µM (expanded OPCs; [4]): 60.2%; viability at 1 µM (expanded OPCs; [5]): 56.2%; viability at 10 µM (expanded OPCs; [6]): 43.1%
C[N+]1(C)CCN(c2ccccc2)CC1 [DMPP, dimethylphenylpiperazinium, reference compound] | 101 | 89.5 | 111 |  |  |  |  |  | activation at 2 µM [1, 3]: 40.6%; activation at 10 µM [1, 7]: 54.3%; EC50 ([1]; Rattus norvegicus, average EC50 for induction of OL differentiation from independent biological replicates, eight concentrations): 13 µM; hit in OL differentiation assay, MRF-TMC ([1]; ● = confirmed hit in this paper's assay): ●
C#C[C@]1(O)CC[C@H]2[C@@H]3CCC4=Cc5oncc5C[C@]4(C)[C@H]3CC[C@@]21C [Danazol] |  |  |  | 24.1 | 95.3 | 92.4 | 47.1 |  | activation at 0.4 µM [1, 11]: 9.4%
O.O.O=C1N=C([O-])CN1/N=C/c1ccc(-c2ccc([N+](=O)[O-])cc2)o1.[Na+] [Dantrolene sodium salt dihydrate] |  |  |  |  | 93.5 | 100.3 | 91.7 |  | 2 uM (% Quet) [1, 13]: -16.0 % Quet; 10 uM (% Quet) [1, 14]: -55.0 % Quet
Nc1ccc(S(=O)(=O)c2ccc(N)cc2)cc1 [Dapsone] |  |  |  | -13.2 | 101.9 | 96.3 | 99.0 | -22.2 | 
Cc1c(O)c(=O)ccn1C [Deferiprone] |  |  |  |  |  |  |  |  | activation at 2 µM [1, 3]: 6.6%; activation at 10 µM [1, 7]: 37.1%; viability at 0.1 µM (expanded OPCs; [4]): 91.3%; viability at 1 µM (expanded OPCs; [5]): 90.1%; viability at 10 µM (expanded OPCs; [6]): 84.8%
C[C@H](CCC(=O)O)[C@H]1CC[C@H]2[C@@H]3C(=O)C[C@@H]4CC(=O)CC[C@]4(C)[C@H]3CC(=O)[C@]12C [Dehydrocholic Acid] | 101 | 106 | 109 | -12.3 |  |  |  | -5.3 | 
C[C@]12CC[C@H](O)CC1=CC[C@@H]1[C@@H]2CC[C@]2(C)C(=O)CC[C@@H]12 [Dehydroepiandrosterone] | 92 | 87.5 | 83.1 | -23.8 |  |  |  | -57.9 | 
CN(C)[C@@H]1C(O)=C(C(N)=O)C(=O)[C@@]2(O)C(O)=C3C(=O)c4c(O)ccc(Cl)c4[C@@H](O)[C@H]3C[C@@H]12 [Demeclocycline] | 96.3 | 90.6 | 88.4 | -7.5 |  |  |  | -21 | 
CNCCCN1c2ccccc2CCc2ccccc21 [Desipramine] |  |  |  |  | 75.5 | 43.8 | 16.4 |  | activation at 0.08 µM ([1]; Rattus norvegicus, test compound at 0.08 uM, MBP expression relative to quetiapine, NCC library screen, sheet "All OLga data", read-out: 0.08 uM (% Quet)): 8.9%; activation at 0.4 µM ([1]; Rattus norvegicus, test compound at 0.4 uM, MBP expression relative to quetiapine, NCC library screen, sheet "All OLga data", read-out: 0.4 uM (% Quet)): -5.3%
Clc1ccc2c(c1)CCc1cccnc1C2=C1CCNCC1 [Desloratadine] | 61 | 29 | 10.5 |  |  |  |  |  | activation at 0.08 µM ([1]; Rattus norvegicus, test compound at 0.08 uM, NCC library screen, sheet "All OLga data", relative to quetiapine, read-out: 0.08 uM (% Quet)): -28%; activation at 0.4 µM [1, 11]: -84.8%
C[C@@H]1C[C@H]2[C@@H]3CCC4=CC(=O)C=C[C@]4(C)[C@@]3(F)[C@@H](O)C[C@]2(C)[C@H]1C(=O)CO [Desoximetasone] | 111 | 114 | 111 | -17.9 |  |  |  | -33 | 
C[C@@H]1C[C@H]2[C@@H]3CCC4=CC(=O)C=C[C@]4(C)[C@@]3(F)[C@@H](O)C[C@]2(C)[C@@]1(O)C(=O)CO [Dexamethasone] |  |  |  |  | 108.6 | 109.4 | 109.8 |  | activation at 2 µM [1, 16]: 1.1%; activation at 10 µM [1, 17]: -24.5%
C[C@@H]1C[C@H]2[C@@H]3CCC4=CC(=O)C=C[C@]4(C)[C@@]3(F)[C@@H](O)C[C@]2(C)[C@@]1(O)C(=O)CO [Dexamethazone] |  |  |  |  | 115.8 | 108.1 | 98.4 |  | 2 uM (% Quet) [1, 13]: -1.3 % Quet; 10 uM (% Quet) [1, 14]: -8.3 % Quet
COc1ccc2c(c1)[C@]13CCCC[C@@H]1[C@H](C2)N(C)CC3 [Dextromethorphan] |  |  |  |  |  |  |  |  | activation at 0.4 µM [1, 2]: 10.5%; activation at 2 µM [1, 3]: 44.5%; viability at 0.1 µM (expanded OPCs; [4]): 82.6%; viability at 1 µM (expanded OPCs; [5]): 86.9%; viability at 10 µM (expanded OPCs; [6]): 59.6%
CN1C(=O)CN=C(c2ccccc2)c2cc(Cl)ccc21 [Diazepam] |  |  |  |  |  |  |  |  | activation at 2 µM ([1]; Rattus norvegicus, read-out: 2 uM (% Quet)): 3.8%; activation at 10 µM ([1]; Rattus norvegicus, read-out: 10 uM (% Quet)): -14.1%; viability at 0.1 µM (expanded OPCs; read-out: 0.1 µM (% DMSO)): 92.5%; viability at 1 µM (expanded OPCs; read-out: 1 µM (% DMSO)): 97.2%; viability at 10 µM (expanded OPCs; read-out: 10 µM (% DMSO)): 102%
CC1=NS(=O)(=O)c2cc(Cl)ccc2N1 [Diazoxide] | 98.9 | 86.5 | 82.6 | -1.9 |  |  |  | -7.1 | 
O=C(O)C(Cl)Cl [Dichloroacetic Acid] | 99.2 | 83.6 | 83.5 | 0.66 |  |  |  | 13.7 | 
O=C(O)Cc1ccccc1Nc1c(Cl)cccc1Cl [Diclofenac] |  |  |  |  |  |  |  |  | activation at 2 µM [1, 3]: 4.8%; activation at 10 µM [1, 7]: 3.4%; viability at 0.1 µM (expanded OPCs; [4]): 90.1%; viability at 1 µM (expanded OPCs; [5]): 95.5%; viability at 10 µM (expanded OPCs; [6]): 88.8%
Cc1onc(-c2c(Cl)cccc2Cl)c1C(=O)N[C@@H]1C(=O)N2[C@@H]1SC(C)(C)[C@@H]2C(=O)O [Dicloxacillin] |  |  |  |  | 93.5 | 91.4 | 76.5 |  | activation at 2 µM [1, 16]: -0.7%; activation at 10 µM [1, 17]: -16.9%
CCN(CC)CCOC(=O)C1(C2CCCCC2)CCCCC1 [Dicyclomine] |  |  |  | 32.1 | 99.8 | 87.7 | 52.8 |  | activation at 0.4 µM [1, 11]: -5.5%
O=C(O)c1cc(-c2ccc(F)cc2F)ccc1O [Diflunisal] |  |  |  | 5.6 | 94.0 | 92.0 | 35.0 |  | activation at 0.4 µM [1, 11]: 0.3%
C[C@H]1O[C@@H](O[C@H]2[C@@H](O)C[C@H](O[C@H]3[C@@H](O)C[C@H](O[C@H]4CC[C@@]5(C)[C@H](CC[C@@H]6[C@@H]5C[C@@H](O)[C@]5(C)[C@@H](C7=CC(=O)OC7)CC[C@]65O)C4)O[C@@H]3C)O[C@@H]2C)C[C@H](O)[C@@H]1O [Digoxin] | 103 | 99.8 | 106 | -10.3 |  |  |  | 22.8 | 
COc1ccc([C@@H]2Sc3ccccc3N(CCN(C)C)C(=O)[C@@H]2OC(C)=O)cc1 [Diltiazem] |  |  |  | -2.4 | 81.4 | 67.2 | 48.7 |  | activation at 0.4 µM [1, 11]: -12.2%
CN(C)CCOC(c1ccccc1)c1ccccc1 [Diphenhydramine] |  |  |  |  |  |  |  |  | activation at 2 µM [1, 3]: 3.5%; activation at 10 µM [1, 7]: 30%; viability at 0.1 µM (expanded OPCs; [4]): 79.3%; viability at 1 µM (expanded OPCs; [5]): 80%; viability at 10 µM (expanded OPCs; [6]): 62.4%
CCOC(=O)C1(c2ccccc2)CCN(CCC(C#N)(c2ccccc2)c2ccccc2)CC1 [Diphenoxylate] | 85.6 | 27.7 | 23.2 |  |  |  |  |  | activation at 0.08 µM ([1]; Rattus norvegicus, 0.08 uM test compound, relative to quetiapine, sheet "All OLga data", read-out: OL differentiation, 0.08 uM (% Quet)): -3.7%; activation at 0.4 µM [1, 2]: 12%
